One test deals with T1, Adenosine receptor A1 (Rattus norvegicus, UniProt P25099).
T1 sequence (P25099 whole entry): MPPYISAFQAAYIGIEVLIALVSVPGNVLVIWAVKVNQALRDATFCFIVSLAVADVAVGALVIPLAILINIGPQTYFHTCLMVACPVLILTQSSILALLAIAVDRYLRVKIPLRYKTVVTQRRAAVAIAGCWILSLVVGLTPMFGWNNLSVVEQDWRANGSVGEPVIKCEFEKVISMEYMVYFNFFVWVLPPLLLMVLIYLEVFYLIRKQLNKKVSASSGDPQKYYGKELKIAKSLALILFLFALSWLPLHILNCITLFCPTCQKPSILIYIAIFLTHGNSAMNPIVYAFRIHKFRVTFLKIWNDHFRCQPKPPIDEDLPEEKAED

Test [1] has as its target Adenosine receptors; A1 & A3 (Rattus norvegicus) (UniProt P25099+P28647). Put plainly: Selectivity for binding affinity towards A1 adenosine receptor in rat brain membrane and rat A3 receptor expressed in CHO cells. Format: cell-based.
For test [2], the target named is Adenosine receptor A2a (Rattus norvegicus) (UniProt P30543). Put plainly: Binding affinity against Adenosine A2A receptor of rat striatal membranes using [3H]- CGS 21680 at 10E-4. Conditions: concentration not given here.
The next test has as its target T2, Adenosine receptor A3 (Rattus norvegicus, UniProt P28647).
T2 sequence (P28647 whole entry): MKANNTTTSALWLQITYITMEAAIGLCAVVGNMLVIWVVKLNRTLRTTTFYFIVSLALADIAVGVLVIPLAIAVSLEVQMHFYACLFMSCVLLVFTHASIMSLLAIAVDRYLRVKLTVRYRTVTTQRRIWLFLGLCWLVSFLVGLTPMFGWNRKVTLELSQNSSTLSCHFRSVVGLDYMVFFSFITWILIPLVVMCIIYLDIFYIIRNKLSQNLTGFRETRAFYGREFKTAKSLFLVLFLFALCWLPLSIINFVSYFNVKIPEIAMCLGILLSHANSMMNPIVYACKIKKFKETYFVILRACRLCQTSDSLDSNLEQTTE
Put plainly: biochemical.

The next test has as its target Adenosine receptor A2a (Rattus norvegicus, UniProt P30543).

Sequence of Adenosine receptor A2a (P30543 whole entry): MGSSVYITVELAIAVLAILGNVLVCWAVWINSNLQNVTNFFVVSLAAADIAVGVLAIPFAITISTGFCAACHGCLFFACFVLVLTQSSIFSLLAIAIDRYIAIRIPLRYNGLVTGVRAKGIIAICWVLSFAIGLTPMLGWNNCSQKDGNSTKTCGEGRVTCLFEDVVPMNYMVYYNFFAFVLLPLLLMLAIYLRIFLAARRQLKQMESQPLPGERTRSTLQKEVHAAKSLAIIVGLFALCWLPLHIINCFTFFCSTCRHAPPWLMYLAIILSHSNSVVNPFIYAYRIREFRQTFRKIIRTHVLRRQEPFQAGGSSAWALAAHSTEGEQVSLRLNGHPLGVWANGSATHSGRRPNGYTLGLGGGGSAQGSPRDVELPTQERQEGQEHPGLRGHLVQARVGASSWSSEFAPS
Sequence of Adenosine receptor A2a (Rattus norvegicus) (P30543 whole entry): as above
Description for Adenosine receptor A1: Binding affinity against adenosine A1 receptor in rat brain membranes using [3H]R-PIA.
Description for Adenosine receptor A3: Binding affinity against rat adenosine A3 receptor expressed in CHO cells using [125I]-.

For `CCNC(=O)[C@H]1O[C@@H](n2cnc3c(NC(=O)Nc4ccc(OC)cc4)nc(C#CC(O)c4ccccc4)nc32)[C@H](O)[C@@H]1O` (stereo partly specified), the Ki at Adenosine receptor A1 is 75.1 nM; on Adenosine receptor A3 it was 324 nM. In addition, in test [1], the Ratio was found to be 0.23. The inhibition in test [2] is 12%.
For `CCNC(=O)[C@H]1O[C@@H](n2cnc3c(NC(=O)Nc4ccc(S(N)(=O)=O)cc4)ncnc32)[C@H](O)[C@@H]1O`, the Ratio in test [1] was 47.
Consider `CCNC(=O)[C@H]1O[C@@H](n2cnc3c(NC(=O)Nc4cccc(Cl)c4)nc(C#CC(O)c4ccccc4)nc32)[C@H](O)[C@@H]1O` (stereo partly specified), for which the inhibition constant Ki on Adenosine receptor A1 came to 814 nM; at Adenosine receptor A3 it was 696 nM. For the same compound, the Ratio in test [1] was 1.2. The compound also came in with an inhibition in test [2] of 12%.
As for `CCNC(=O)[C@H]1O[C@@H](n2cnc3c(NC(=O)c4ccccc4Cl)ncnc32)[C@H](O)[C@@H]1O`, the Ki on Adenosine receptor A2a stood at 1960 nM; on Adenosine receptor A1 it was 1170 nM; at Adenosine receptor A3, 754 nM. Further, the Ratio in test [1] came out at 1.6.
As for `CCNC(=O)[C@H]1O[C@@H](n2cnc3c(NC(=O)Nc4nncs4)ncnc32)[C@H](O)[C@@H]1O`, the Ratio in test [1] stood at 0.037.
Turning to `CCNC(=O)[C@H]1OC(n2cnc3c(NC(=O)Nc4ccc(NS(=O)(=O)c5cc(C)on5)cc4)ncnc32)[C@H](O)[C@@H]1O` (stereo partly specified), the Ki on Adenosine receptor A2a was 977 nM; on Adenosine receptor A1, 901 nM; at Adenosine receptor A3 it was 155 nM. For the same compound, the Ratio in test [1] amounted to 5.8.
In the case of `CCNC(=O)[C@H]1O[C@@H](n2cnc3c(NC(=O)Nc4ccc(OC)cc4)nc(I)nc32)[C@H](O)[C@@H]1O`, the figures for the Ki on Adenosine receptor A2a, at Adenosine receptor A1 and on Adenosine receptor A3 were 260 nM, 29.4 nM and 251 nM, respectively. The Ratio in test [1] stood at 0.12.
For the compound `CCNC(=O)[C@H]1O[C@@H](n2cnc3c(NC(=O)c4ccc(-c5ccccc5)cc4)ncnc32)[C@H](O)[C@@H]1O`, in test [1], the Ratio was found to be 0.006.
`CCNC(=O)[C@H]1O[C@@H](n2cnc3c(NC(=O)NCc4ccccc4)ncnc32)[C@H](O)[C@@H]1O`: the Ratio in test [1] is 4.5.
Take `CCNC(=O)[C@H]1O[C@@H](n2cnc3c(NC(=O)Nc4ccc(OC)cc4)nc(C#Cc4ccccc4)nc32)[C@H](O)[C@@H]1O`: the results for the Ki at Adenosine receptor A1 and at Adenosine receptor A3 were 4790 nM and 154 nM, respectively. In test [1], the Ratio came to 31. The inhibition in test [2] came to 29%.
With `CCNC(=O)[C@H]1O[C@@H](n2cnc3c(NC(=O)Nc4ccc(NS(=O)(=O)c5ccccn5)cc4)ncnc32)[C@H](O)[C@@H]1O`, the Ki came out at 740 nM at Adenosine receptor A2a, 292 nM on Adenosine receptor A1 and 54.1 nM on Adenosine receptor A3. In addition, in test [1], the Ratio was 5.4.
In the same order, the values of `CCNC(=O)[C@H]1O[C@@H](n2cnc3c(NC(=O)NCCc4ccccc4)ncnc32)[C@H](O)[C@@H]1O` are 2650 nM, 129 nM, 149 nM and 0.86.
On to `CCNC(=O)[C@H]1O[C@@H](n2cnc3c(NC(=O)Cc4ccc(Cl)cc4Cl)ncnc32)[C@H](O)[C@@H]1O`, for which the Ratio in test [1] worked out at 0.095.
In the case of `CCNC(=O)[C@H]1O[C@@H](n2cnc3c(NC(=O)Nc4cccc(Cl)c4)nc(C#Cc4ccccc4)nc32)[C@H](O)[C@@H]1O`, the Ki turned out to be 48700 nM at Adenosine receptor A2a, 1330 nM at Adenosine receptor A1 and 611 nM at Adenosine receptor A3. In test [1], the Ratio came out at 2.1.
Consider `CCNC(=O)[C@H]1O[C@@H](n2cnc3c(NC(=O)Nc4cc(C)on4)ncnc32)[C@H](O)[C@@H]1O`, for which the Ratio in test [1] is 0.27.
Take `CCCCC#Cc1nc(NC(=O)Nc2cccc(Cl)c2)c2ncn([C@@H]3O[C@H](C(=O)NCC)[C@@H](O)[C@H]3O)c2n1`: the Ki at Adenosine receptor A2a was found to be 7130 nM; at Adenosine receptor A1, 2040 nM; at Adenosine receptor A3, 581 nM. Further, in test [1], the Ratio turned out to be 3.5.
Regarding `CCNC(=O)[C@H]1O[C@@H](n2cnc3c(NC(=O)Nc4ccc(OC)cc4)nc(C#CCCCc4ccccc4)nc32)[C@H](O)[C@@H]1O`, the Ki on Adenosine receptor A2a stood at 1670 nM; at Adenosine receptor A3, 89.5 nM. Also, the Ratio in test [1] came out at 160.
With `CCNC(=O)[C@H]1O[C@@H](n2cnc3c(NC(=O)Nc4ccc(C(C)=O)cc4)ncnc32)[C@H](O)[C@@H]1O`, the Ratio in test [1] turned out to be 3.5.
Take `CCNC(=O)[C@H]1O[C@@H](n2cnc3c(NC(=O)Nc4ccc(OC)cc4)nc(Cl)nc32)[C@H](O)[C@@H]1O`: the Ki stood at 59 nM at Adenosine receptor A2a, 22 nM at Adenosine receptor A1 and 17.1 nM on Adenosine receptor A3. The Ratio in test [1] was 1.2.
For `CNC(=O)[C@H]1OC(n2cnc3c(NCc4cccc(I)c4Cl)ncnc32)[C@H](O)[C@@H]1O` (stereo partly specified), in that order: 470 nM, 820 nM, 0.33 nM and 2500.
In the case of `CCNC(=O)[C@H]1O[C@@H](n2cnc3c(NC(=O)N[C@@H](C)c4ccccc4)ncnc32)[C@H](O)[C@@H]1O`, the Ratio in test [1] was found to be 1.7.
Turning to `CCNC(=O)[C@H]1O[C@@H](n2cnc3c(NC(=O)Nc4cccc(Cl)c4)nc(I)nc32)[C@H](O)[C@@H]1O`, the results for the inhibition constant Ki on Adenosine receptor A2a, on Adenosine receptor A1 and at Adenosine receptor A3 were 10600 nM, 103 nM and 315 nM, respectively. Besides, the Ratio in test [1] turned out to be 0.33.
Regarding `CCCOc1ccc(NC(=O)Nc2ncnc3c2ncn3C2O[C@H](C(=O)NCC)[C@@H](O)[C@H]2O)cc1` (stereo partly specified), the values for the Ki at Adenosine receptor A2a, at Adenosine receptor A1 and on Adenosine receptor A3 were 255 nM, 247 nM and 107 nM, respectively. Also, the Ratio in test [1] turned out to be 2.3.
As for `CCCCC#Cc1nc(NC(=O)Nc2ccc(OC)cc2)c2ncn([C@@H]3O[C@H](C(=O)NCC)[C@@H](O)[C@H]3O)c2n1`, the Ki was 2330 nM on Adenosine receptor A2a, 428 nM on Adenosine receptor A1 and 211 nM at Adenosine receptor A3. Also, the Ratio in test [1] worked out at 2.
`CCNC(=O)[C@H]1O[C@@H](n2cnc3c(NC(=O)c4ccccc4)ncnc32)[C@H](O)[C@@H]1O`: the Ratio in test [1] came out at 0.3.
Same read-out and setting: next, `CCNC(=O)[C@H]1O[C@@H](n2cnc3c(NC(=O)c4ccc(OC)cc4)ncnc32)[C@H](O)[C@@H]1O`: 0.1; `CCNC(=O)[C@H]1O[C@@H](n2cnc3c(N(C(=O)Nc4ccc(Cl)cn4)C(=O)Nc4ccc(Cl)cn4)ncnc32)[C@H](O)[C@@H]1O`: 0.13.
Consider `CCNC(=O)[C@H]1O[C@@H](n2cnc3c(NC(=O)NCc4ccco4)ncnc32)[C@H](O)[C@@H]1O`, for which the inhibition constant (Ki) at Adenosine receptor A2a was determined as 1860 nM; at Adenosine receptor A1, 419 nM; on Adenosine receptor A3, 713 nM. In addition, in test [1], the Ratio is 0.58.
For `CCNC(=O)[C@H]1O[C@@H](n2cnc3c(NC(=O)Nc4ccc(NS(=O)(=O)c5ncccn5)cc4)ncnc32)[C@H](O)[C@@H]1O`, in that order: 16.8 nM, 725 nM, 405 nM and 1.7.
Regarding `CCNC(=O)[C@H]1O[C@@H](n2cnc3c(NC(=O)N[C@H](C)c4ccccc4)ncnc32)[C@H](O)[C@@H]1O`, the Ratio in test [1] was 27.
On to `CCNC(=O)[C@H]1O[C@@H](n2cnc3c(NC(=O)NCCc4ccc(OC)c(OC)c4)ncnc32)[C@H](O)[C@@H]1O`, for which the values for the Ki on Adenosine receptor A2a, on Adenosine receptor A1 and on Adenosine receptor A3 were 1570 nM, 1770 nM and 411 nM, respectively. In test [1], the Ratio was 4.3.
As for `CCNC(=O)[C@H]1O[C@@H](n2cnc3c(NC(=O)Nc4cccc(Cl)c4)nc(Cl)nc32)[C@H](O)[C@@H]1O`, the Ki came to 557 nM on Adenosine receptor A2a, 90 nM at Adenosine receptor A1 and 77.6 nM at Adenosine receptor A3. Moreover, the Ratio in test [1] was 1.2.

As a reminder, the Ki is a dissociation constant, usually derived from enzyme kinetics or from competition with a known ligand. For orientation: inhibition means the drop in the measured response relative to a control, in per cent.

(Values after ChEMBL document CHEMBL1131059, “Synthesis and biological activity of a new series of N6-arylcarbamoyl, 2-(Ar)alkynyl-N6-arylcarbamoyl, and N6-carboxamido derivatives of adenosine-5'-N-ethyluronamide as A1 and A3 adenosine receptor agonists” (J Med Chem, 1998).)
